Experiments:
N2 background = experiment: Pharynx pumping rate of N2 background (comparison); type: in vivo, C. elegans; conditions: 0,5 mM, 3 hours at 20° C., FIG. 4
Procedure: (§1) The nematodes were cultivated to L4 stage on an agar plate, and then kept overnight at 20° C. to reach the adult stage. The worms where then transferred to agar plates containing 0,5 mM 4-aminopyridine in DMSO. After 3 hours at 20° C., the number of pharynx “pumps” (contractions) per 30 seconds were determined visually using a stopwatch. As a comparison, the influence of 4-aminopyridine on an N2 background was also determined, in essentially the same manner.

[1] = test system: hKv4.3-expressing pha-1 strain UG 1598; experiment: Electropharyngeogram (EPG) of hKv4.3-expressing pha-1 strain UG 1598; type: in vivo, C. elegans; conditions: 215 mM
Procedure: An electropharyngeogram of the human Kv4.3 expressing strain UG 1547 was recorded using an Axopatch-1D amplifier (Axon instruments), essentially as described by Raizen and Avery, supra, and is shown in FIG. 1. For comparison, reference is made to the EPG's for wild-type and exp-2 shown by Davis, Dent and Avery, Worm Breeders Gazette 14(4); 72 (1996), as well as the EPG's for wild-type shown in Raizen and Avery.
The influence of 4-aminopyridine on the EPG of a hKv4.3-expressing strain was studied using the hKv4.3-expressing pha-1 strain UG 1598 of Example III. As mentioned in Example VI, exposing this strain UG 1598 to 4-aminopyridine leads to a reduction of pharynx pumping.
The EPG's for UG 1598 (using 4 pharynxes) were recorded essentially as described in Example XII. The EPG's of UG 1598 without 4-aminopyridine were recorded during a period of 5 minutes, upon which the pharynxes were exposed to 215 mM 4-aminopyridine, and the EPG's were further recorded during a 5 minute period. The EPG's with and without the presence of 4-aminopyridine were then compared with each other and to the EPG for wild-type (see the references mentioned in Example XII).
The number of “Kv4.3-like” AP's and the number of “normal” AP's during the 5 minute recording period were determined/counted from the recorded EPG's.
After exposure to the 4-aminopyridine, the number of “Kv4.3-like” AP's and the number of “normal” AP's during the 5 minute recording period were again determined/counted from the EPG recording.

exp-2 background [2] = experiment: Pharynx pumping rate of original exp-2 background (comparison); type: in vivo, C. elegans; conditions: 2 mM, 3 hours at 20° C., FIG. 5
Procedure: The nematodes were cultivated to L4 stage on an agar plate, and then kept overnight at 20° C. to reach the adult stage. The worms where then transferred to agar plates containing 2 mM 4-aminopyridine in DMSO. After 3 hours at 20° C., the number of pharynx “pumps” (contractions) per 30 seconds were determined visually using a stopwatch. As a comparison, the influence of 4-aminopyridine on the original exp-2 background was also determined, in essentially the same manner.

[3] = test system: hKv4.3 expressing C. elegans strain UG 1598; experiment: Pharynx pumping rate of hKv4.3 expressing pha-1 strain UG 1598; type: in vivo
Procedure: The influence of 4-aminopyridine, a known general antagonist of voltage-gated potassium channel, on the pharynx pumping rate of the hKv4.3 expressing C. elegans strain UG 1598 (Example III) was determined as follows.
as §1

unc-119; hKv4.3 = experiment: Pharynx pumping rate of unc-119; hKv4.3 nematode; type: in vivo, C. elegans; conditions: 500 mM, 3 hrs
exp-2 background [4] = experiment: Drinking assay (uptake of Calcein AM) in exp-2 background; type: in vivo, C. elegans; conditions: 0.3 mM, exp-2 without compound = 100%
Excerpt: (§2) The hKv4.3 expressing C. elegans strain UG 1611 (Example IV) was investigated for drinking behaviour by determining the uptake over time of the fluorescent dye Calcein AM, essentially as described in Examples 2 and 3 of the International application PCT/IB00/00575 by Applicant, using 96 well plates containing 100 nematodes/well. As a comparison, the exp-2(sa26as1426)V background was used.
(§3) The influence of mM 4-aminopyridine, a known general antagonist of voltage-gated potassium channel, on drinking behaviour of the hKv4.3 expressing C. elegans strain UG 1611 (Example IV) was determined by measuring the uptake of the fluorescent dye Calcein AM with and without the presence of 0.3 mM 4aminopyridine, essentially as described in Examples 2 and 3 of the International application PCT/IB00/00575 by Applicant.

[5] = test system: hKv4.3 expressing C. elegans strain UG 1611; experiment: Drinking assay (uptake of Calcein AM) in hKv4.3 expressing exp-2 strain UG 1611; type: in vivo; conditions: 0.3 mM, exp-2 without compound = 100%, UG 1611 without compound 114%
Excerpt: as §2, §3

[6] = test system: hKv4.3 expressing C. elegans strain UG 1611; experiment: Pharynx pumping rate of hKv4.3 expressing exp-2 strain UG 1611; type: in vivo; parameters: Change observed (pharynx pumping rate): dose or concentration left out as unconfirmed
Procedure: The influence of 4-aminopyridine, a known general antagonist of voltage-gated potassium channel, on the pharynx pumping rate of the hKv4.3 expressing C. elegans strain UG 1611 (Example IV) was determined as follows.
The nematodes were cultivated to L4 stage on an agar plate, and then kept overnight at 20° C. to reach the adult stage. […] After 3 hours at 20° C., the number of pharynx “pumps” (contractions) per 30 seconds were determined visually using a stopwatch. As a comparison, the influence of 4-aminopyridine on the original exp-2 background was also determined, in essentially the same manner.

[7] = UG 1598, compared to UG1598 without compound

Nc1ccncc1 [4-aminopyridine]
Influence on pharynx pumping rate (pumps per 30 seconds) (N2 background): very little influence | Number of "normal" APs during the 5 minute recording period ([1]; UG 1598, 4 pharynxes, before adding 14+/−12, P<0.0161): 64+/−9 | Relative number of "Kv4.3 like" AP's in EPG [1, 7]: significant decrease | Relative number of "normal" AP's in EPG [1, 7]: corresponding increase | Influence on pharynx pumping rate (pumps per 30 seconds) (exp-2 background [2]): very little influence | Change observed (pharynx pumping rate) ([3]; pha-1, hKv4.3, 0,5 mM, 3 hrs): increase in | Influence on pharynx pumping rate (pumps per 30 seconds) ([3]; strain UG 1598, 0,5 mM in agar plates, 3 hours at 20° C., FIG. 4): increases | Pharynx pumping (as restated in Example XIII) ([3]; strain UG 1598, refers to Example VI): reduction | Change observed (pharynx pumping rate) (unc-119; hKv4.3): increase in | Uptake of fluorescent marker Calcein AM (drinking) (exp-2 background [4]): 103% | Uptake of fluorescent marker Calcein AM (drinking) [5]: 109% | Change observed (pharynx pumping rate) ([6]; exp-2, hKv4.3, 3 hrs): (small) decrease | Influence on pharynx pumping rate (pumps per 30 seconds) ([6]; strain UG 1611, 2 mM in agar plates, 3 hours at 20° C., FIG. 5): decreases
